According to patent US20260193264A1, “BENZOYPARAZINE PYRAZINES AND THEIR USES” (FOGHORN THERAPEUTICS INC., priority 2022, published 2026):

Tests used:
[1] = target: T1, HiBiT-BRM fusion protein in stable HeLa cell line (Homo sapiens, UniProt P51531); experiment: HiBiT-BRM cell-based degradation assay (Nano-Glo HiBiT Lytic Detection, 24 h); set-up: DC50: scale not given here; conditions: HeLa HiBiT-BRM cells; for DC50: read-out: BRM HiBit Degradation IC50; for BRM HiBit Degradation Maximum (%): top dose 30 μM
T1 construct: expressed in transfected cells
In short: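 Luminescence from HiBiT/LgBiT complementation after lysis reports remaining HiBiT-BRM in stable HeLa cells exposed to compound for 24 h. Dosing used 3-fold serial dilutions, 10 points, 30 μM top final concentration. DMSO and a 2 μM BRM/BRG1 degrader standard defined 0% and 100% degradation.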

[2] = target: T2, HiBit-BRG1 fusion protein in stable HeLa cell line expressing HiBit-BRG1 and LgBit (Homo sapiens, UniProt P51532); experiment: HiBiT-BRG1 cell-based degradation assay (Nano-Glo HiBiT, 24 h); conditions: HeLa HiBit-BRG1/LgBit cells; for DC50: read-out: BRMG1 HiBit Degradation IC50; for Dmax: top dose 30 μM, read-out: BRG1 HiBit Degradation Maximum (%)
T2 construct: expressed in transfected cells
In short: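 Stable HeLa line co-expressing HiBiT-BRG1 and LgBiT, compound-treated 24 h; luminescence read after Nano-Glo HiBiT lytic reagent. % degradation normalised between DMSO (high control) and 2 μM reference BRM/BRG1 degrader (low control).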

T2 sequence (P51532 whole entry, the tested form may be a part): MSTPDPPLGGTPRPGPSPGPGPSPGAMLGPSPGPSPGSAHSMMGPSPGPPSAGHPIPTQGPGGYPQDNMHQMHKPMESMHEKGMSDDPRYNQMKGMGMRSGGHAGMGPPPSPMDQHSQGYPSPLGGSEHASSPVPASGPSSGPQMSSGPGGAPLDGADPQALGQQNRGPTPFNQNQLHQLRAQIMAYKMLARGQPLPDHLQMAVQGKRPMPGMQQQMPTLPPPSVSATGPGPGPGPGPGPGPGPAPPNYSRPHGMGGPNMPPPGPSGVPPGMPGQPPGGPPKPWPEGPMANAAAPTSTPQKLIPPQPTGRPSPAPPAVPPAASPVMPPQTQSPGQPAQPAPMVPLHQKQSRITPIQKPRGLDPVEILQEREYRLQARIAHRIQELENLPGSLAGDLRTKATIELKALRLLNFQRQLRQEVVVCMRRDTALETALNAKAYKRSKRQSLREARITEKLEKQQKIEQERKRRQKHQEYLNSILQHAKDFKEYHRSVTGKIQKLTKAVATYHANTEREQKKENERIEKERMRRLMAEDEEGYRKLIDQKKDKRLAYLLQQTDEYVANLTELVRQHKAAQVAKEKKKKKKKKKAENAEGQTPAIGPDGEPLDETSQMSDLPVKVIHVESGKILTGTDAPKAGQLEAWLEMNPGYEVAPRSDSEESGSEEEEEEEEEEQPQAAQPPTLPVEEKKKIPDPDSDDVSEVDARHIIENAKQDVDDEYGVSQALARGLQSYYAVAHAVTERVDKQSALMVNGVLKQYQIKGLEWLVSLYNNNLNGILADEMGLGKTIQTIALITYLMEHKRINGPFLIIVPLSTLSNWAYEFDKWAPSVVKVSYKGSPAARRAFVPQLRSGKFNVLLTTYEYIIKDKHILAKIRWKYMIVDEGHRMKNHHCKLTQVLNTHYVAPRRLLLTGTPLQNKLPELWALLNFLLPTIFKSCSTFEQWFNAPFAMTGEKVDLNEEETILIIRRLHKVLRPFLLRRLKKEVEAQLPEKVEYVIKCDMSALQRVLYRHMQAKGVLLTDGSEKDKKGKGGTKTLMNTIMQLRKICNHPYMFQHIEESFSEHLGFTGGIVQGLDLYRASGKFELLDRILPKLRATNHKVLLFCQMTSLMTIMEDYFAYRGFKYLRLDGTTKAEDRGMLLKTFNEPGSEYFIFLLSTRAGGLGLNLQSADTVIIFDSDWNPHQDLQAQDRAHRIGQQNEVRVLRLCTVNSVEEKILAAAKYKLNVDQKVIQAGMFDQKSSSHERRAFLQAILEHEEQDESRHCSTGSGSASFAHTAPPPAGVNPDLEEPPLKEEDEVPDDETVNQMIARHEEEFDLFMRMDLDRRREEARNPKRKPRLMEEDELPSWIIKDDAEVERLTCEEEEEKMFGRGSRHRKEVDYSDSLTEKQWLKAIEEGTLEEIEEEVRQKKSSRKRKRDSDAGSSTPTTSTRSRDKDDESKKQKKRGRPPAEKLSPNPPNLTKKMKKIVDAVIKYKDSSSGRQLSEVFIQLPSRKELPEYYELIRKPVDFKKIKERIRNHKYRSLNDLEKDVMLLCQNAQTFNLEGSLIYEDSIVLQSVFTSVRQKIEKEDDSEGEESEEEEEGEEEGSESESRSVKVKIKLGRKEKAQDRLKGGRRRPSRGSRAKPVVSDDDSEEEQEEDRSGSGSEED
T1 sequence (P51531 whole entry, the tested form may be a part): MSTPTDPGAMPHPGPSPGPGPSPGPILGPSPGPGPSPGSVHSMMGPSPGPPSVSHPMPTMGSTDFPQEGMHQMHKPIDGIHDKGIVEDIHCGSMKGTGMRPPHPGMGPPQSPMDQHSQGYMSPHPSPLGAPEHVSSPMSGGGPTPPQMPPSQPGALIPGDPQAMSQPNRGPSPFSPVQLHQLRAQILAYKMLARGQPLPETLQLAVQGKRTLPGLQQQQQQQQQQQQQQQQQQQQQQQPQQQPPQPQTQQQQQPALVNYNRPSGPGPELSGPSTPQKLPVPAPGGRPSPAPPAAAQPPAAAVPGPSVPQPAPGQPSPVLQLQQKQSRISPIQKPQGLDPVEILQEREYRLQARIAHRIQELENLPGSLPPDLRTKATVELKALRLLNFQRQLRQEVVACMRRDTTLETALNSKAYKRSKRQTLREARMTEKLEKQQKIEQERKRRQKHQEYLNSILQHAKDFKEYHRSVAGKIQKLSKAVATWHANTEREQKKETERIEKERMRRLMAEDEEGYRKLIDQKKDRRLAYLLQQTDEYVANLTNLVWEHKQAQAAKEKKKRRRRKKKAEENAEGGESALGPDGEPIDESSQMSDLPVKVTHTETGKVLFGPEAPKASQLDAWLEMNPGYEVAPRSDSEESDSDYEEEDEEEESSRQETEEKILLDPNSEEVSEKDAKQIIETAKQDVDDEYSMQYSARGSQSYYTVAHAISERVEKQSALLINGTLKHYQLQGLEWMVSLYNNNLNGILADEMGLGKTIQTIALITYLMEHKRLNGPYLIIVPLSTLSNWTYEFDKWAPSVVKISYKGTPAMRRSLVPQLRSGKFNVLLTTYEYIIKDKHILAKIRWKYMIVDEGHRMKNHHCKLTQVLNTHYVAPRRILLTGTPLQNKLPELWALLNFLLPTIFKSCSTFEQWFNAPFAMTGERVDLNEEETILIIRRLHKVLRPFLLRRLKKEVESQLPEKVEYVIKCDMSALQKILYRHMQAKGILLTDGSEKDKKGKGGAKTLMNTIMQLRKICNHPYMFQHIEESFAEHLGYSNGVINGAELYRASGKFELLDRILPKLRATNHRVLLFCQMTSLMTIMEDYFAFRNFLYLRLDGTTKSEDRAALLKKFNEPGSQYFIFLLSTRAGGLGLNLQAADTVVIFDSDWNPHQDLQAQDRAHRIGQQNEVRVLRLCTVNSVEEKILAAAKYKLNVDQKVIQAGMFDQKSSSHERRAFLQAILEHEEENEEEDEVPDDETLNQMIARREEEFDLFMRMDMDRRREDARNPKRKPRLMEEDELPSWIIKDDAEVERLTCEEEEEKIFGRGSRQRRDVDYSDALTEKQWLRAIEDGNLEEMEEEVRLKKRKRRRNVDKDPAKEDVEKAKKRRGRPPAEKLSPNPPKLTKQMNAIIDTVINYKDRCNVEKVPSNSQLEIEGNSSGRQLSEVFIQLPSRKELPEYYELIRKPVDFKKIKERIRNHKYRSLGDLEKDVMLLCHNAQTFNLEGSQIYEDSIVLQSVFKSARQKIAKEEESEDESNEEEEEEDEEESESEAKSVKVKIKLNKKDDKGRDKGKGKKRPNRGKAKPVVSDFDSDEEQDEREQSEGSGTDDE

For `Cc1ncsc1-c1ccc([C@H](C)NC(=O)[C@@H]2C[C@@H](O)CN2C(=O)[C@@H](c2cc(N3C[C@]4(C)CN(c5ccc6nnc(-c7ccccc7O)cc6c5)C[C@]4(C)C3)no2)C(C)C)cc1` [Compound 188, (2S,4R)-4-hydroxy-1-((R)-2-(3-((3aR,6aS)-5-(3-(2-hydroxyphenyl)cinnolin-6-yl)-3a,6a-dimethylhexahydropyrrolo[3,4-c]pyrrol-2(1H)-yl)isoxazol-5-yl)-3-methylbutanoyl)-N-((S)-1-(4-(4-methylthiazol-5-yl)phenyl)ethyl)pyrrolidine-2-carboxamide], the DC50 [1] was > 10 nM, the “BRM HiBit Degradation Maximum (%)” value [1] was “A (“A” indicates maximum degradation ≥75%)” and the DC50 [2] was > 10 nM. The Dmax [2] was > 75%.
For `COC[C@H]1CN(c2cc([C@H](C(=O)N3C[C@H](O)C[C@H]3C(=O)N[C@@H](C)c3ccc(-c4scnc4C)cc3)C(C)C)on2)CCN1c1ccc2cc(-c3ccccc3O)nnc2c1` [Compound 142, (2S,4R)-4-hydroxy-1-((R)-2-(3-((R)-4-(3-(2-hydroxyphenyl)cinnolin-7-yl)-3-(methoxymethyl)piperazin-1-yl)isoxazol-5-yl)-3-methylbutanoyl)-N-((S)-1-(4-(4-methylthiazol-5-yl)phenyl)ethyl)pyrrolidine-2-carboxamide], the DC50 [1] was > 10 nM, the “BRM HiBit Degradation Maximum (%)” value [1] was “A (“A” indicates maximum degradation ≥75%)” and the Dmax [2] was < 50%.
For `Cc1ncsc1-c1ccc([C@H](C)NC(=O)[C@@H]2C[C@@H](O)CN2C(=O)[C@H](c2cc(-c3cnc(N4CC(c5cc6cc(-c7ccccc7O)nnc6cc5Cl)C4)nc3)no2)C(C)C)cc1` [Compound 29], the DC50 [1] was > 100 nM, the “BRM HiBit Degradation Maximum (%)” value [1] was “A (“A” indicates maximum degradation ≥75%)” and the Dmax [2] was < 50%.
With `Cc1ncsc1-c1ccc([C@H](C)NC(=O)[C@@H]2C[C@@H](O)CN2C(=O)[C@H](C(C)C)n2cc(N3CCN4CCN(c5ccc6nnc(-c7ccccc7O)cc6c5)CC4C3)nn2)cc1` (stereo partly drawn) [Compound 214] the DC50 [1] was < 10 nM, the “BRM HiBit Degradation Maximum (%)” value [1] was “A (“A” indicates maximum degradation ≥75%)” and the Dmax [2] was > 50%.
`Cc1ncsc1-c1ccc([C@H](C)NC(=O)[C@@H]2C[C@@H](O)CN2C(=O)[C@@H](c2cc(N3C[C@]4(C)CN(c5ccc6cc(-c7ccccc7O)nnc6c5)C[C@]4(C)C3)no2)C(C)C)cc1` [Compound 187, (2S,4R)-4-hydroxy-1-((R)-2-(3-((3aR,6aS)-5-(3-(2-hydroxyphenyl)cinnolin-7-yl)-3a,6a-dimethylhexahydropyrrolo[3,4-c]pyrrol-2(1H)-yl)isoxazol-5-yl)-3-methylbutanoyl)-N-((S)-1-(4-(4-methylthiazol-5-yl)phenyl)ethyl)pyrrolidine-2-carboxamide] was tested, and the DC50 [1] was < 10 nM, the “BRM HiBit Degradation Maximum (%)” value [1] was “A (“A” indicates maximum degradation ≥75%)” and the DC50 [2] was > 10 nM. For the same compound, the Dmax [2] was > 75%.
In the case of `Cc1ncsc1-c1ccc([C@H](C)NC(=O)[C@@H]2C[C@@H](O)CN2C(=O)[C@@H](c2cc(N3CC4(CCN4c4ccc5nnc(-c6ccccc6O)cc5c4)C3)no2)C(C)C)cc1` [Compound 102, (2S,4R)-4-hydroxy-1-((R)-2-(3-(1-(3-(2-hydroxyphenyl)cinnolin-6-yl)-1,6-diazaspiro[3.3]heptan-6-yl)isoxazol-5-yl)-3-methylbutanoyl)-N-((S)-1-(4-(4-methylthiazol-5-yl)phenyl)ethyl)pyrrolidine-2-carboxamide], the DC50 [1] is reported as < 10 nM, the “BRM HiBit Degradation Maximum (%)” value [1] is reported as “A (“A” indicates maximum degradation ≥75%)” and the Dmax [2] is reported as < 50%.
With `CC(C)[C@@H](C(=O)N1C[C@H](O)C[C@H]1C(=O)N[C@@H](C)c1ccccc1)c1cc(N2CC[C@@H](c3ccc4cc(-c5ccccc5O)nnc4c3)C2)no1` [Compound 116, (2S,4R)-4-hydroxy-1-((R)-2-(3-((S)-3-(3-(2-hydroxyphenyl)cinnolin-7-yl)pyrrolidin-1-yl)isoxazol-5-yl)-3-methylbutanoyl)-N-((S)-1-phenylethyl)pyrrolidine-2-carboxamide] the DC50 [1] was < 10 nM, the “BRM HiBit Degradation Maximum (%)” value [1] was “A (“A” indicates maximum degradation ≥75%)” and the Dmax [2] was < 50%.
In the case of `Cc1cc(N2CCC(c3ccc4nnc(-c5ccccc5O)cc4c3)CC2)ncc1-c1cc([C@H](C(=O)N2C[C@H](O)C[C@H]2C(=O)N[C@@H](C)c2ccc(-c3scnc3C)cc2)C(C)C)on1` [Compound 70, (2S,4R)-4-hydroxy-1-((R)-2-(3-(6-(4-(3-(2-hydroxyphenyl)cinnolin-6-yl)piperidin-1-yl)-4-methylpyridin-3-yl)isoxazol-5-yl)-3-methylbutanoyl)-N-((S)-1-(4-(4-methylthiazol-5-yl)phenyl)ethyl)pyrrolidine-2-carboxamide], the DC50 [1] is reported as > 10 nM, the “BRM HiBit Degradation Maximum (%)” value [1] is reported as “A (“A” indicates maximum degradation ≥75%)” and the DC50 [2] is reported as > 10 nM. The Dmax [2] was > 50%.
`Cc1cc(-c2cc([C@H](C(=O)N3C[C@H](O)C[C@H]3C(=O)N[C@@H](C)c3ccc(-c4scnc4C)cc3)C(C)C)on2)cnc1N1CCC(c2ccc3cc(-c4ccccc4O)nnc3c2)CC1` [Compound 88, (2S,4R)-4-hydroxy-1-((R)-2-(3-(6-(4-(3-(2-hydroxyphenyl)cinnolin-7-yl)piperidin-1-yl)-5-methylpyridin-3-yl)isoxazol-5-yl)-3-methylbutanoyl)-N-((S)-1-(4-(4-methylthiazol-5-yl)phenyl)ethyl)pyrrolidine-2-carboxamide] was tested, and the DC50 [1] was < 10 nM, the “BRM HiBit Degradation Maximum (%)” value [1] was “A (“A” indicates maximum degradation ≥75%)” and the Dmax [2] was < 50%.
In the case of `CC(C)[C@@H](C(=O)N1C[C@H](O)C[C@H]1C(=O)N[C@@H](C)c1ccccc1F)c1cc(N2CC3(CN(c4ccc5cc(-c6ccccc6O)nnc5c4)C3)C2)no1` [Compound 110, (2S,4R)-N-((S)-1-(2-fluorophenyl)ethyl)-4-hydroxy-1-((R)-2-(3-(6-(3-(2-hydroxyphenyl)cinnolin-7-yl)-2,6-diazaspiro[3.3]heptan-2-yl)isoxazol-5-yl)-3-methylbutanoyl)pyrrolidine-2-carboxamide], the DC50 [1] is reported as < 10 nM, the “BRM HiBit Degradation Maximum (%)” value [1] is reported as “A (“A” indicates maximum degradation ≥75%)” and the Dmax [2] is reported as < 50%.
`Cc1ncsc1-c1ccc([C@H](C)NC(=O)[C@@H]2C[C@@H](O)CN2C(=O)[C@H](C(C)C)n2cc(N3CC4(CN(c5ccc6nnc(-c7ccccc7O)cc6c5)C4)C3)nn2)cc1` [Compound 172, (2S,4R)-4-hydroxy-1-((S)-2-(4-(6-(3-(2-hydroxyphenyl)cinnolin-6-yl)-2,6-diazaspiro[3.3]heptan-2-yl)-1H-1,2,3-triazol-1-yl)-3-methylbutanoyl)-N-((S)-1-(4-(4-methylthiazol-5-yl)phenyl)ethyl)pyrrolidine-2-carboxamide] was tested, and the DC50 [1] was < 10 nM, the “BRM HiBit Degradation Maximum (%)” value [1] was “A (“A” indicates maximum degradation ≥75%)” and the DC50 [2] was < 10 nM. The Dmax [2] was > 50%.
`Cc1ncsc1-c1ccc([C@H](C)NC(=O)[C@@H]2C[C@@H](O)CN2C(=O)C(C(C)C)n2cc(N3CCC(C4CN(c5ccc6cc(-c7ccccc7O)nnc6c5)C4)C3)nn2)cc1` (stereo partly drawn) [Compound 235, (2S,4R)-4-hydroxy-1-(2-(4-(3-(1-(3-(2-hydroxyphenyl)cinnolin-7-yl)azetidin-3-yl)pyrrolidin-1-yl)-1H-1,2,3-triazol-1-yl)-3-methylbutanoyl)-N-((S)-1-(4-(4-methylthiazol-5-yl)phenyl)ethyl)pyrrolidine-2-carboxamide] was tested, and the DC50 [1] was < 10 nM, the “BRM HiBit Degradation Maximum (%)” value [1] was “A (“A” indicates maximum degradation ≥75%)” and the DC50 [2] was > 10 nM. For the same compound, the Dmax [2] was > 75%.
With `Cc1ncsc1-c1ccc([C@H](C)NC(=O)[C@@H]2C[C@@H](O)CN2C(=O)[C@@H](c2cc(N3CC4(CN(c5ccc6nnc(-c7ccccc7O)cc6c5)C4)C3)no2)C(C)C)cc1` [Compound 66, (2S,4R)-4-hydroxy-1-((R)-2-(3-(6-(3-(2-hydroxyphenyl)cinnolin-6-yl)-2,6-diazaspiro[3.3]heptan-2-yl)isoxazol-5-yl)-3-methylbutanoyl)-N-((S)-1-(4-(4-methylthiazol-5-yl)phenyl)ethyl)pyrrolidine-2-carboxamide] the DC50 [1] was < 10 nM, the “BRM HiBit Degradation Maximum (%)” value [1] was “A (“A” indicates maximum degradation ≥75%)” and the Dmax [2] was < 50%.
For `Cc1ncsc1-c1ccc([C@H](C)NC(=O)[C@@H]2C[C@@H](O)CN2C(=O)[C@@H](c2cc(N3CC4(C3)CN(c3cc5nnc(-c6cccc(F)c6O)cc5cc3C3CC3)C4)no2)C(C)C)cc1` [Compound 180, (2S,4R)-1-((R)-2-(3-(6-(6-cyclopropyl-3-(3-fluoro-2-hydroxyphenyl)cinnolin-7-yl)-2,6-diazaspiro[3.3]heptan-2-yl)isoxazol-5-yl)-3-methylbutanoyl)-4-hydroxy-N-((S)-1-(4-(4-methylthiazol-5-yl)phenyl)ethyl)pyrrolidine-2-carboxamide], the DC50 [1] was < 10 nM, the “BRM HiBit Degradation Maximum (%)” value [1] was “A (“A” indicates maximum degradation ≥75%)” and the Dmax [2] was < 50%.
For `Cc1ncsc1-c1ccc([C@H](C)NC(=O)[C@@H]2C[C@@H](O)CN2C(=O)C(c2cc(N3CCC4(CN(c5ccc6cc(-c7ccccc7O)nnc6c5)C4)C(F)(F)C3)no2)C(C)C)cc1` (stereo partly drawn) [Compound 108, (2S,4R)-1-(2-(3-(5,5-difluoro-2-(3-(2-hydroxyphenyl)cinnolin-7-yl)-2,7-diazaspiro [3.5]nonan-7-yl)isoxazol-5-yl)-3-methylbutanoyl)-4-hydroxy-N-((S)-1-(4-(4-methylthiazol-5-yl)phenyl)ethyl)pyrrolidine-2-carboxamide], the DC50 [1] was < 10 nM, the “BRM HiBit Degradation Maximum (%)” value [1] was “A (“A” indicates maximum degradation ≥75%)” and the DC50 [2] was > 10 nM. The Dmax [2] was > 75%.
